Test results taken from US10208033B2, “β-carboline, dihydro-β-carboline and tetrahydro-β-carboline alkaloid derivatives and preparation methods same and use in aspects of preventing and treating plant viruses, fungicides and insecticides” (NANKAI UNIVERSITY, priority 2013, dated 2019).

What was measured:
[1] = test system: tobacco mosaic virus (TMV); assay: Anti-TMV in vitro effect (half-leaf soaking); type: cell-based, tobacco mosaic virus (host Nicotiana tabacum L.cv.Xanthi NN); conditions: for inhibition at 100 µg/mL / inhibition at 500 µg/mL: Tobacco mosaic virus, read-out: Relative inhibition rate (%) In vitro activity
[2] = test system: tobacco mosaic virus (TMV); assay: Anti-TMV in vivo inactivation; design: species or system tobacco mosaic virus (host Nicotiana tabacum L.cv.Xanthi NN); conditions: for inhibition at 100 µg/mL / inhibition at 500 µg/mL: Tobacco mosaic virus, read-out: Relative inhibition rate (%) In vivo inactivation
[3] = test system: tobacco mosaic virus (TMV); assay: Anti-TMV in vivo therapeutic effect; design: species or system tobacco mosaic virus (host Nicotiana tabacum L.cv.Xanthi NN); conditions: for inhibition at 100 µg/mL / inhibition at 500 µg/mL: Tobacco mosaic virus, read-out: Relative inhibition rate (%) In vivo therapy
[4] = test system: tobacco mosaic virus (TMV); assay: Anti-TMV in vivo protective effect; design: species or system tobacco mosaic virus (host Nicotiana tabacum L.cv.Xanthi NN); conditions: for inhibition at 100 µg/mL / inhibition at 500 µg/mL: Tobacco mosaic virus, read-out: Relative inhibition rate (%) In vivo protection
cucumber fusarium wilt = assay: Fungicidal (bactericidal) activity in vitro, PDA colony diameter; type: cell-based; conditions: 50 mg/kg; for inhibition of growth at 50 mg/kg: Fusarium, 96 h
Cercospora arachidicola = assay: as above; type: cell-based; conditions: 50 mg/kg; for inhibition of growth at 50 mg/kg: Mycosphaerella arachidis, 96 h
Macrophoma kawatsukai = assay: as above; type: cell-based; conditions: 50 mg/kg
Alternaria solani = assay: as above; type: cell-based; conditions: 50 mg/kg; for inhibition of growth at 50 mg/kg: Alternaria solani, 96 h
Fusarium graminearumt = assay: microbe, parasite or virus in culture; type: cell-based; conditions: for inhibition of growth at 50 mg/kg: Fusarium, 96 h, read-out: Bactericidal activity (%) Fusarium graminearumt
potato late blight = assay: microbe, parasite or virus in culture; type: cell-based; conditions: for inhibition of growth at 50 mg/kg: Phytophthora infestans, 96 h, read-out: Bactericidal activity (%) potato late blight
Sclerotinia scleotiorum = assay: Fungicidal (bactericidal) activity in vitro, PDA colony diameter; type: cell-based; conditions: 50 mg/kg; for inhibition of growth at 50 mg/kg: Sclerotinia, 96 h
Botrytis cinerea = assay: as above; type: cell-based; conditions: 50 mg/kg; for inhibition of growth at 50 mg/kg: Botrytis cinerea, 96 h
Rhizoctonia solani = assay: as above; type: cell-based; conditions: 50 mg/kg; for inhibition of growth at 50 mg/kg: Rhizoctonia solani, 96 h
Phytophthora capsici = assay: as above; type: cell-based; conditions: 50 mg/kg; for inhibition of growth at 50 mg/kg: Phytophthora capsici, 96 h
Fusarium fujikuroi = assay: as above; type: cell-based; conditions: 50 mg/kg; for inhibition of growth at 50 mg/kg: Fusarium fujikuroi, 96 h
Rhizoctonia cereali = assay: as above; type: cell-based; conditions: 50 mg/kg; for inhibition of growth at 50 mg/kg: Rhizoctonia, 96 h
Bipolaria maydis = assay: organism not typed; type: cell-based; conditions: for inhibition at 50 mg/kg: read-out: Bactericidal activity (%) Bipolaria maydis
[5] = test system: Colletotrichum orbiculare; assay: Fungicidal (bactericidal) activity in vitro, PDA colony diameter; type: cell-based; conditions: 50 mg/kg; for inhibition of growth at 50 mg/kg: Colletotrichum orbiculare, 96 h
armyworms = type: in vivo; conditions: concentration 600 mg/kg
cotton bollworms = assay: whole plant or invertebrate; conditions: for mortality at 600 mg/kg: Helicoverpa armigera, in Gossypium hirsutum, read-out: Cotton bollworm Mortality (%)
Experimental: Experimental method of cotton bollworms: feed and drug mixing method: measure 3 mL of prepared solution and add it to about 27 g of newly prepared feed, thereby obtaining needed concentration through dilution by 10 times.

mosquito larvae = assay: whole plant or invertebrate; conditions: for mortality at 10 mg/kg: Culex pipiens, read-out: Mosquito larvae Mortality (%); for mortality at 10 mg/kg / Mosquito larvae Mortality (%): 24 h
In short: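 Early fourth-instar Culex pipiens pallens larvae from an indoor colony, 10 per beaker, exposed to test compound at 5 ppm in water, diluted from a 1000 ppm acetone mother solution. Blank: water containing 0.5 mL test solvent.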

[6] = test system: tobacco mosaic virus (TMV); assay: Anti-TMV activity, overall statements on Table 1; type: in vivo, tobacco mosaic virus (host Nicotiana tabacum L.cv.Xanthi NN); conditions: 100 μg/mL versus ningnanmycin at 100 μg/mL
corn borers [7] = assay: whole plant or invertebrate; conditions: read-out: Corn borer Mortality (%)
[8] = test system: armyworms, cotton bollworms and corn borers; assay: Insecticidal activity, overall statements on Table 3; type: in vivo; conditions: Table 3, 600 mg/kg
corn borers [9] = conditions: concentration 600 mg/kg

CC1=NCCc2c1[nH]c1ccccc21 [Harmalan]
inhibition at 100 µg/mL ([1]; treatment dose 100 μg/mL): 30%
inhibition at 500 µg/mL ([1]; treatment dose 500 μg/mL): 58.6%
inhibition at 100 µg/mL ([2]; treatment dose 100 μg/mL): 32.7%
inhibition at 500 µg/mL ([2]; treatment dose 500 μg/mL): 62.3%
inhibition at 100 µg/mL ([3]; treatment dose 100 μg/mL): 34.8%
inhibition at 500 µg/mL ([3]; treatment dose 500 μg/mL): 55.1%
inhibition at 100 µg/mL ([4]; treatment dose 100 μg/mL): 35.6%
inhibition at 500 µg/mL ([4]; treatment dose 500 μg/mL): 60.3%
inhibition of growth at 50 mg/kg (cucumber fusarium wilt): 23.1%
inhibition of growth at 50 mg/kg (Cercospora arachidicola): 76.9%
inhibition at 50 mg/kg (Macrophoma kawatsukai): 2.4%
inhibition of growth at 50 mg/kg (Alternaria solani): 26.3%
inhibition of growth at 50 mg/kg (Fusarium graminearumt): 21.4%
inhibition of growth at 50 mg/kg (potato late blight): 31.8%
inhibition of growth at 50 mg/kg (Sclerotinia scleotiorum): 19.6%
inhibition of growth at 50 mg/kg (Botrytis cinerea): 15.2%
inhibition of growth at 50 mg/kg (Rhizoctonia solani): 19.7%
inhibition of growth at 50 mg/kg (Phytophthora capsici): 0%
inhibition of growth at 50 mg/kg (Fusarium fujikuroi): 28.6%
inhibition of growth at 50 mg/kg (Rhizoctonia cereali): 55.3%
inhibition at 50 mg/kg (Bipolaria maydis): 27.3%
inhibition of growth at 50 mg/kg [5]: 25%
Armyworm Mortality (%) (armyworms): 20%
mortality at 600 mg/kg (cotton bollworms): 10%
mortality at 10 mg/kg (mosquito larvae): 35%
anti-TMV activity compared with ningnanmycin [6]: equivalent to the activity of commercial variety ningnanmycin
mortality at 600 mg/kg (corn borers [7]): 15%

Cc1nccc2c1[nH]c1cc(OC(=O)C(C)(C)C)ccc12 [Ia-8, Tert-valerate (1-methylpyridino [3,4-b]indol-7)-ester]
Relative inhibition rate (%) In vitro activity ([1]; treatment dose 100 μg/mL): 0%
Relative inhibition rate (%) In vitro activity ([1]; treatment dose 500 μg/mL): 0%
Relative inhibition rate (%) In vivo inactivation ([2]; treatment dose 100 μg/mL): 0%
Relative inhibition rate (%) In vivo inactivation ([2]; treatment dose 500 μg/mL): 15.3%
Relative inhibition rate (%) In vivo therapy ([3]; treatment dose 100 μg/mL): 0%
Relative inhibition rate (%) In vivo therapy ([3]; treatment dose 500 μg/mL): 0%
Relative inhibition rate (%) In vivo protection ([4]; treatment dose 100 μg/mL): 0%
Relative inhibition rate (%) In vivo protection ([4]; treatment dose 500 μg/mL): 14.4%
Bactericidal activity (%) Cucumber fusarium wilt (cucumber fusarium wilt): 52.4%
Bactericidal activity (%) Cercospora arachidicola (Cercospora arachidicola): 71.4%
Bactericidal activity (%) Macrophoma kawatsukai (Macrophoma kawatsukai): 76.5%
Bactericidal activity (%) Alternaria solani (Alternaria solani): 66.7%
Bactericidal activity (%) Fusarium graminearumt (Fusarium graminearumt; 50 mg/kg): 78.6%
Bactericidal activity (%) potato late blight (potato late blight; 50 mg/kg): 50.0%
Bactericidal activity (%) Sclerotinia scleotiorum (Sclerotinia scleotiorum): 80.0%
Bactericidal activity (%) Botrytis cinerea (Botrytis cinerea): 54.6%
Bactericidal activity (%) Rhizoctonia solani (Rhizoctonia solani): 42.9%
Bactericidal activity (%) Phytophthora capsici (Phytophthora capsici): 93.9%
Bactericidal activity (%) Fusarium fujikuroi (Fusarium fujikuroi): 50.0%
Bactericidal activity (%) Rhizoctonia cereali (Rhizoctonia cereali): 90.6%
Bactericidal activity (%) Bipolaria maydis (Bipolaria maydis; 50 mg/kg): 79.0%
Bactericidal activity (%) Colletotrichum orbiculare [5]: 71.4%
Armyworm Mortality (%) (armyworms): 70%
Cotton bollworm Mortality (%) (cotton bollworms; concentration 600 mg/kg): 15%
activity against culex pipiens larvae (in words) (mosquito larvae; at 5 mg/kg): still show high activity
Mosquito larvae Mortality (%) (mosquito larvae; concentration 5 mg/kg): 60%
Mosquito larvae Mortality (%) (mosquito larvae; concentration 10 mg/kg): 100%
activity against armyworms, cotton bollworms and corn borers (in words) [8]: broad-spectrum activity
Corn borer Mortality (%) (corn borers [9]): 65%

C[C@@H]1N[C@H](C(=O)NN)Cc2c1[nH]c1ccccc21 [Ib-15, (1S, 3S)-1-methyl-2,3,4,9-tetrahydropyridino [3,4-b] indol-3-formylhydrazine]
inhibition at 100 µg/mL ([1]; treatment dose 100 μg/mL): 21.4%
inhibition at 500 µg/mL ([1]; treatment dose 500 μg/mL): 50%
inhibition at 100 µg/mL ([2]; treatment dose 100 μg/mL): 16.5%
inhibition at 500 µg/mL ([2]; treatment dose 500 μg/mL): 46%
inhibition at 100 µg/mL ([3]; treatment dose 100 μg/mL): 20.3%
inhibition at 500 µg/mL ([3]; treatment dose 500 μg/mL): 48.2%
inhibition at 100 µg/mL ([4]; treatment dose 100 μg/mL): 23.4%
inhibition at 500 µg/mL ([4]; treatment dose 500 μg/mL): 49.6%
inhibition of growth at 50 mg/kg (cucumber fusarium wilt): 13.6%
inhibition of growth at 50 mg/kg (Cercospora arachidicola): 18.2%
inhibition at 50 mg/kg (Macrophoma kawatsukai): 39.4%
inhibition of growth at 50 mg/kg (Alternaria solani): 9.5%
inhibition of growth at 50 mg/kg (Fusarium graminearumt): 38.5%
inhibition of growth at 50 mg/kg (potato late blight): 26.1%
inhibition of growth at 50 mg/kg (Sclerotinia scleotiorum): 30.8%
inhibition of growth at 50 mg/kg (Botrytis cinerea): 27.8%
inhibition of growth at 50 mg/kg (Rhizoctonia solani): 4.2%
inhibition of growth at 50 mg/kg (Phytophthora capsici): 51.5%
inhibition of growth at 50 mg/kg (Fusarium fujikuroi): 29.4%
inhibition of growth at 50 mg/kg (Rhizoctonia cereali): 54.1%
inhibition at 50 mg/kg (Bipolaria maydis): 24%
inhibition of growth at 50 mg/kg [5]: 24%
Armyworm Mortality (%) (armyworms): 20%
mortality at 600 mg/kg (cotton bollworms): 20%
mortality at 10 mg/kg (mosquito larvae): 40%
anti-TMV activity compared with ningnanmycin [6]: equivalent to the activity of commercial variety ningnanmycin
mortality at 600 mg/kg (corn borers [7]): 30%
